According to the supplement of paper PMC10307832:

Experiments:
Assay in all cases: relative viability (nuclei count vs DMSO), 5 days (fraction); higher = more cells survive
[1] = compound: CC1CC(=O)N(C2=CN=C(N=C2N1C3CCCC3)NC4=C(C=C(C=C4)C(=O)NC5CCN(CC5)C)OC)C [NPK76-II-72-1] + CC(C)C[C@H](NC(=O)[C@H](Cc1ccccc1)NC(=O)c1cnccn1)B(O)O [Bortezomib] (partner 0.002 µM)
Procedure, shortened: (§1)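 Dosing by pin tool came one day after lung cancer cell lines were seeded in 1536-well plates, using either one drug or a fixed anchor-drug dose plus five library-drug doses (not always all listed) in √10 steps. After 5 days, nuclei were counted on 4× images. Relative viability is treated-well nuclei count divided by vehicle-well nuclei count, and values are medians of duplicate plates.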

[2] = compound: CC1CC(=O)N(C2=CN=C(N=C2N1C3CCCC3)NC4=C(C=C(C=C4)C(=O)NC5CCN(CC5)C)OC)C [NPK76-II-72-1] + Cc1nc(Nc2ncc(C(=O)Nc3c(C)cccc3Cl)s2)cc(N2CCN(CCO)CC2)n1 [Dasatinib] (partner 0.075 µM)
Procedure, shortened: as §1

BI-2536 + Trametinib = compound: CC[C@@H]1C(=O)N(C)c2cnc(Nc3ccc(C(=O)NC4CCN(C)CC4)cc3OC)nc2N1C1CCCC1 [BI-2536] + CC(=O)Nc1cccc(-n2c(=O)n(C3CC3)c(=O)c3c(Nc4ccc(I)cc4F)n(C)c(=O)c(C)c32)c1 [Trametinib] (partner 0.02 µM)
Procedure, shortened: as §1

BI-2536 + Foretinib = compound: CC[C@@H]1C(=O)N(C)c2cnc(Nc3ccc(C(=O)NC4CCN(C)CC4)cc3OC)nc2N1C1CCCC1 [BI-2536] + COc1cc2c(Oc3ccc(NC(=O)C4(C(=O)Nc5ccc(F)cc5)CC4)cc3F)ccnc2cc1OCCCN1CCOCC1 [Foretinib] (partner 0.25 µM)
Procedure, shortened: as §1

| Cell Line | relative viability ([1]; first compound 0.01 µM) | relative viability ([1]; first compound 0.03162 µM) | relative viability ([1]; first compound 0.1 µM) | relative viability ([1]; first compound 0.3162 µM) | relative viability ([1]; first compound 1 µM) | relative viability ([2]; first compound 0.01 µM) | relative viability ([2]; first compound 0.03162 µM) | relative viability ([2]; first compound 0.1 µM) | relative viability ([2]; first compound 0.3162 µM) | relative viability ([2]; first compound 1 µM) | relative viability (BI-2536 + Trametinib; first compound 0.01 µM) | relative viability (BI-2536 + Trametinib; first compound 0.03162 µM) | relative viability (BI-2536 + Trametinib; first compound 0.1 µM) | relative viability (BI-2536 + Trametinib; first compound 0.3162 µM) | relative viability (BI-2536 + Trametinib; first compound 1 µM) | relative viability (BI-2536 + Foretinib; first compound 0.01 µM) | relative viability (BI-2536 + Foretinib; first compound 0.03162 µM) | relative viability (BI-2536 + Foretinib; first compound 0.1 µM) | relative viability (BI-2536 + Foretinib; first compound 0.3162 µM) | relative viability (BI-2536 + Foretinib; first compound 1 µM) |
| --- | --- | --- | --- | --- | --- | --- | --- | --- | --- | --- | --- | --- | --- | --- | --- | --- | --- | --- | --- | --- |
| NCI-H1975 | 0.34 | 0.37 | 0.292 | 0.41 | 0.402 | 0.336 | 0.402 | 0.359 | 0.439 | 0.382 | 0.252 | 0.363 | 0.295 | 0.12 | 0.122 | 0.942 | 0.85 | 0.508 | 0.148 | 0.114 |
| CAL-12T | 0.874 | 0.832 | 0.872 | – | 1.01 | 0.369 | 0.379 | 0.364 | 0.319 | 0.391 | 0.344 | 0.338 | 0.383 | 0.147 | 0.157 | 1.08 | 0.951 | 0.503 | 0.173 | 0.187 |
| NCI-H1623 | – | – | – | – | – | 0.562 | 0.522 | 0.554 | 0.401 | 0.545 | – | – | – | – | – | 0.912 | 0.864 | 0.83 | 0.345 | 0.321 |
| HCC-44 | 0.836 | 0.877 | 0.87 | 0.843 | 1.03 | – | – | – | – | – | 1.04 | 1.04 | 1.03 | 0.323 | 0.275 | – | – | – | – | – |
| EKVX | 1.01 | 0.998 | 1.03 | 0.637 | 1.04 | 0.58 | 0.528 | 0.519 | – | 0.652 | 0.313 | 0.343 | 0.379 | 0.155 | 0.151 | 0.702 | 0.833 | 0.755 | 0.237 | 1.08 |
| NCI-H1651 | 0.95 | 0.954 | 0.903 | 0.9 | 0.991 | 0.386 | 0.46 | 0.413 | 0.429 | 0.419 | 0.786 | 0.868 | 0.789 | 0.518 | 0.123 | 0.628 | 0.776 | 0.536 | 0.0828 | 0.0854 |
| NCI-H1944 | – | – | – | – | – | 0.205 | 0.219 | 0.224 | 0.221 | 0.226 | 0.392 | 0.427 | 0.439 | 0.144 | 0.186 | 0.822 | 1.09 | 0.907 | 0.134 | 0.178 |
| NCI-H1703 | 0.255 | 0.316 | 0.323 | 0.318 | 0.348 | – | – | – | – | – | – | – | – | – | – | – | 0.296 | 0.191 | 0.152 | 0.14 |
| Calu-6 | 0.992 | 1.03 | 1.16 | 0.894 | 1.06 | – | – | – | – | – | – | – | – | – | – | 0.8 | 0.613 | 0.281 | 0.0815 | 0.0737 |
| EBC-1 | 0.543 | 0.63 | 0.608 | 0.562 | 0.713 | – | – | – | – | – | – | – | – | – | – | 0.0994 | 0.0943 | 0.0905 | 0.0859 | 0.0908 |
| SW 1573 | 1.13 | 1.04 | 0.822 | 1.04 | 1.27 | 0.46 | 0.592 | 0.556 | 0.589 | 0.509 | 0.515 | 0.51 | 0.117 | 0.103 | 0.0762 | 0.878 | 0.91 | 0.936 | 0.196 | 0.158 |
| A-427 | 0.935 | 0.977 | 1.06 | 0.932 | 1.02 | 0.659 | 0.822 | 0.688 | 0.674 | 0.726 | 0.733 | 0.662 | 0.605 | 0.184 | 0.189 | 1.02 | 0.919 | 1.08 | 0.166 | 0.148 |
| NCI-H2347 | 0.827 | 1.24 | 0.697 | 0.756 | 1.01 | 0.309 | 0.297 | 0.348 | 0.348 | 0.327 | 0.261 | 0.302 | 0.282 | 0.264 | 0.238 | 1.07 | 0.742 | 0.933 | 0.311 | 0.292 |
| NCI-H1355 | 1.06 | 1.12 | 1.03 | 1.13 | 1.19 | 0.689 | 0.627 | 0.744 | 0.617 | 0.731 | 0.428 | 0.47 | 0.46 | 0.176 | 0.174 | 0.871 | 0.968 | 0.601 | 0.149 | 0.18 |
| NCI-H358 | – | – | – | – | – | 0.162 | 0.14 | 0.156 | – | 0.149 | 0.146 | 0.126 | 0.11 | 0.0815 | 0.0734 | 0.623 | 0.598 | 0.08 | 0.101 | 0.0984 |
| PC-3 [JPC-3] | 0.83 | 0.897 | 0.581 | 0.778 | 0.81 | 0.937 | 1.02 | 0.916 | 0.973 | 1.07 | 0.71 | 0.583 | 0.616 | 0.357 | 0.438 | 1.06 | 0.914 | 0.753 | 0.17 | 0.187 |
| NCI-H2228 | 0.799 | 0.81 | 0.935 | 0.942 | 1.31 | 0.367 | 0.547 | 0.495 | 0.566 | 0.619 | 0.312 | 0.51 | 0.184 | 0.107 | 0.089 | 1.05 | 0.583 | 0.217 | 0.15 | 0.156 |
| HOP-62 | 0.743 | 0.754 | 0.433 | 0.916 | 0.824 | 0.585 | 0.653 | 0.633 | 0.672 | 0.64 | 0.315 | 0.353 | 0.401 | 0.167 | 0.152 | 1.19 | 1.05 | 0.767 | 0.182 | 0.146 |
| HARA | 1.08 | 1.2 | 1.04 | 1.12 | 1.22 | 0.254 | 0.233 | 0.168 | 0.237 | 0.219 | 0.765 | 0.971 | 0.545 | 0.0894 | 0.156 | 0.97 | 1.07 | 0.746 | 0.0569 | 0.0893 |
